Measured values published in publication PMC10035947, “Development of novel anilinoquinazoline-based carboxylic acids as non-classical carbonic anhydrase IX and XII inhibitors” (Journal of Enzyme Inhibition and Medicinal Chemistry, 2023).
Where two headings read alike, the source gives them in different places.

Tests used:
NCI-H23 = assay: NCI SRB assay; assay type: cell-based, human
CAKI-1 = assay: NCI SRB assay; assay type: cell-based, human; conditions: for CC50: read-out: LC50 (the source's name)
HCT-15 = assay: NCI SRB assay; assay type: cell-based, human
SW-620 = assay: NCI SRB assay; assay type: cell-based, human
MCF7 = assay: NCI SRB assay; assay type: cell-based, human; conditions: for CC50: read-out: LC50 (the source's name)
EKVX = assay: NCI SRB assay; assay type: cell-based, human; conditions: for GI50 / LC50 (concentration killing 50% of cells) / TGI: 5-dose
IGROV1 = assay: NCI SRB assay; assay type: cell-based, human; conditions: for CC50: read-out: LC50 (the source's name)
LOX IMVI = assay: NCI SRB assay; assay type: cell-based, human
HL-60(TB) = assay: NCI SRB assay; assay type: cell-based, human; conditions: for CC50: read-out: LC50 (the source's name)
OVCAR-5 = assay: NCI SRB assay; assay type: cell-based, human; conditions: for CC50: read-out: LC50 (the source's name)
hCA II = biological target: T1, hCA II (Homo sapiens, UniProt P00918); assay: stopped flow CO2 hydrase assay; assay type: biochemical; conditions: mean from 3 assays
T1 construct: made in house
Experimental: Carbonic anhydrase inhibition assay
The carbonic anhydrase catalyzed CO2 hydration actions for the quinazoline-based carboxylic acid derivatives (6a-c, 7a-c and 8a-c) were assayed utilizing an instrument of Applied Photophysics stopped-flow, as described previously. The enzymes are recombinant proteins prepared in our lab. Phenol red (at a concentration of 0.2 mM) has been used as indicator, working at the absorbance maximum of 557 nm, with 20 mM Hepes (pH 7.5) as buffer, and 20 mM Na2SO4 (for maintaining constant the ionic strength), following the initial rates of the CA- […]
1.7 to 17 mM for the determination of the kinetic parameters and inhibition constants. For each inhibitor at least six traces of the initial 5-10% of the reaction have been used for determining the initial velocity. The uncatalyzed rates were determined in the same manner and subtracted from the total observed rates. Stock solutions of inhibitor (0.1 mM) were prepared in distilled-deionized water and dilutions up to 0.01 nM were done thereafter with the assay buffer. Inhibitor and enzyme solutions were preincubated together for 15 min at room temperature prior to assay, in order to allow for the formation of the E-I complex. The inhibition constants were obtained by non-linear least-squares methods using PRISM 3 and the Cheng-Prusoff equation, and represent the mean from at least three different determinations.

COLO 205 = assay: NCI SRB assay; assay type: cell-based, human
HOP-62 = assay: NCI SRB assay; assay type: cell-based, human
786-0 = assay: NCI SRB assay; assay type: cell-based, human; conditions: for CC50: read-out: LC50 (the source's name)
SNB-75 = assay: NCI SRB assay; assay type: cell-based, human; conditions: Homo sapiens, SNB-75, SNB-75, 5-dose
[1] = Homo sapiens, HCT-15, HCT-15, 5-dose
[2] = Homo sapiens, MCF7, MCF7, 5-dose
[3] = Homo sapiens, IGROV-1, IGROV1, 5-dose

Cc1ccc(-c2nc(Nc3ccccc3C(=O)O)c3ccccc3n2)cc1 [6b, 2-((2-(p-Tolyl)quinazolin-4-yl)amino)benzoic acid]
LC50 (NCI-H23; Homo sapiens, NCI-H23, NCI-H23, 5-dose): > 100 µM
GI50 (NCI-H23; Homo sapiens, NCI-H23, 5-dose): 15.7 µM
GI% (NCI-H23; NCI-H23, 10 μM): 104%
Growth Percent (NCI-H23; NCI-H23, 1.00E-5 Molar): -4.11%
LC50 (NCI-H23; NCI-H23, 5-dose): < 100 µM
TGI (NCI-H23; NCI-H23, 5-dose): 44.4 µM
TGI (NCI-H23; NCI-H23, 5-dose, listed as D - 835857): 4.44E-5 Molar
GI% (CAKI-1; CAKI-1, 10 μM): 79%
Growth Percent (CAKI-1; CAKI-1, 1.00E-5 Molar): 21.08%
TGI (CAKI-1; CAKI-1, 5-dose): <100 µM
TGI (CAKI-1; CAKI-1, 5-dose, listed as D - 835857): > 1.00E-4 Molar
CC50 (CAKI-1; CAKI-1, 5-dose): < 100 µM
CC50 (CAKI-1; Homo sapiens, CAKI-1, CAKI-1, 5-dose): > 100 µM
GI50 (CAKI-1; Homo sapiens, CAKI-1, 5-dose): 13.8 µM
GI% (HCT-15; HCT-15, 10 μM): 95%
Growth Percent (HCT-15; HCT-15, 1.00E-5 Molar): 4.66%
GI50 (HCT-15; HCT-15, 5-dose): 5.8 µM
LC50 (HCT-15; HCT-15, 5-dose): < 100 µM
TGI (HCT-15; HCT-15, 5-dose): 28.7 µM
TGI (HCT-15; HCT-15, 5-dose, listed as D - 835857): 2.87E-5 Molar
GI50 (HCT-15; [1]): 5.82 µM
LC50 (HCT-15; [1]): > 100 µM
LC50 (SW-620; Homo sapiens, SW-620, SW-620, 5-dose): > 100 µM
GI50 (SW-620; Homo sapiens, SW-620, 5-dose): 18.2 µM
GI% (SW-620; SW-620, 10 μM): 86%
Growth Percent (SW-620; SW-620, 1.00E-5 Molar): 14.46%
LC50 (SW-620; SW-620, 5-dose): < 100 µM
TGI (SW-620; SW-620, 5-dose): <100 µM
TGI (SW-620; SW-620, 5-dose, listed as D - 835857): > 1.00E-4 Molar
GI50 (MCF7; [2]): 9.41 µM
CC50 (MCF7; [2]): > 100 µM
GI% (MCF7; MCF7, 10 μM): 92%
Growth Percent (MCF7; MCF7, 1.00E-5 Molar): 7.70%
GI50 (MCF7; MCF7, 5-dose): 9.4 µM
TGI (MCF7; MCF7, 5-dose): 89.9 µM
TGI (MCF7; MCF7, 5-dose, listed as D - 835857): 8.99E-5 Molar
CC50 (MCF7; MCF7, 5-dose): < 100 µM
GI% (EKVX; 10 μM): 87%
Growth Percent (EKVX; 1.00E-5 Molar): 13.07%
GI50 (EKVX): 8.9 µM
LC50 (concentration killing 50% of cells) (EKVX): < 100 µM
TGI (EKVX): 56.2 µM
TGI (EKVX; listed as D - 835857): 5.62E-5 Molar
GI50 (EKVX; Homo sapiens): 8.89 µM
LC50 (concentration killing 50% of cells) (EKVX; Homo sapiens): > 100 µM
GI50 (IGROV1; [3]): 19.1 µM
CC50 (IGROV1; [3]): > 100 µM
GI% (IGROV1; IGROV1, 10 μM): 69%
Growth Percent (IGROV1; IGROV1, 1.00E-5 Molar): 31.06%
TGI (IGROV1; IGROV1, 5-dose): 87.1 µM
TGI (IGROV1; IGROV1, 5-dose, listed as D - 835857): 8.71E-5 Molar
CC50 (IGROV1; IGROV1, 5-dose): < 100 µM
GI% (LOX IMVI; 10 μM): 91%
Growth Percent (LOX IMVI; 1.00E-5 Molar): 8.57%
TGI (LOX IMVI; 5-dose): 31.6 µM
TGI (LOX IMVI; 5-dose, listed as D - 835857): 3.16E-5 Molar
GI50 (LOX IMVI; Homo sapiens, 5-dose): 10.2 µM
CC50 (LOX IMVI; Homo sapiens, 5-dose, read-out: LC50 (the source's name)): 97.7 µM
GI% (HL-60(TB); HL-60(TB), 10 μM): 82%
Growth Percent (HL-60(TB); HL-60(TB), 1.00E-5 Molar): 17.80%
TGI (HL-60(TB); HL-60(TB), 5-dose): 75.4 µM
TGI (HL-60(TB); HL-60(TB), 5-dose, listed as D - 835857): 7.54E-5 Molar
CC50 (HL-60(TB); HL-60(TB), 5-dose): < 100 µM
CC50 (HL-60(TB); Homo sapiens, HL-60, HL-60(TB), 5-dose): > 100 µM
GI50 (HL-60(TB); Homo sapiens, HL-60(TB), 5-dose): 12.9 µM
CC50 (OVCAR-5; Homo sapiens, OVCAR-5, OVCAR-5, 5-dose): > 100 µM
GI50 (OVCAR-5; Homo sapiens, OVCAR-5, 5-dose): 21.8 µM
GI% (OVCAR-5; OVCAR-5, 10 μM): 34%
Growth Percent (OVCAR-5; OVCAR-5, 1.00E-5 Molar): 65.92%
TGI (OVCAR-5; OVCAR-5, 5-dose): 68.9 µM
TGI (OVCAR-5; OVCAR-5, 5-dose, listed as D - 835857): 6.89E-5 Molar
CC50 (OVCAR-5; OVCAR-5, 5-dose): < 100 µM
Ki (hCA II): 48.2 µM
GI% (COLO 205; COLO 205, 10 μM): – (Only GI% higher than 20% are shown)
Growth Percent (COLO 205; COLO 205, 1.00E-5 Molar): 80.94%
TGI (COLO 205; COLO 205, 5-dose): 41.0 µM
TGI (COLO 205; COLO 205, 5-dose, listed as D - 835857): 4.10E-5 Molar
GI50 (COLO 205; Homo sapiens, COLO 205, 5-dose): 17.8 µM
LC50 (concentration killing 50% of cells) (COLO 205; Homo sapiens, COLO 205, 5-dose): 94.1 µM
GI% (HOP-62; HOP-62, 10 μM): 72%
Growth Percent (HOP-62; HOP-62, 1.00E-5 Molar): 28.29%
LC50 (HOP-62; HOP-62, 5-dose): < 100 µM
TGI (HOP-62; HOP-62, 5-dose): 33.7 µM
TGI (HOP-62; HOP-62, 5-dose, listed as D - 835857): 3.37E-5 Molar
LC50 (HOP-62; Homo sapiens, HOP-62, HOP-62, 5-dose): > 100 µM
GI50 (HOP-62; Homo sapiens, HOP-62, 5-dose): 10.8 µM
GI% (786-0; 786-0, 10 μM): 81%
Growth Percent (786-0; 786-0, 1.00E-5 Molar): 18.67%
TGI (786-0; 786-0, 5-dose): <100 µM
TGI (786-0; 786-0, 5-dose, listed as D - 835857): > 1.00E-4 Molar
CC50 (786-0; 786-0, 5-dose): < 100 µM
CC50 (786-0; Homo sapiens, 786-0, 786-0, 5-dose): > 100 µM
GI50 (786-0; Homo sapiens, 786-0, 5-dose): 17.1 µM
GI50 (SNB-75): 1.36 µM
